The values that follow come from patent US9510598B2, “Nitrogen-containing heterocyclic compounds for plant disease control” (BAYER CROPSCIENCE AG, priority 2012, dated 2016).

Data set [1] concerns Septoria tritici. Nature of the data set: In vivo preventive test on Septoria tritici (leaf spot on wheat). To be noted: 500 ppm; wheat plants sprayed 24 hours before contamination; grading 21 to 28 days after contamination vs control plants. Summed up:
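Scipion wheat at 1-leaf stage sprayed with compound, controls receiving acetone/tween/DMSO/water vehicle; 24 h later leaves inoculated with Septoria tritici spores (500 000 spores per ml). Efficacy (%) graded versus control plants 21 to 28 days after contamination.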

The format of data set [2] is physicochemical.
Data set [3] deals with Sphaerotheca fuliginea. Put plainly: In vivo preventive test on Sphaerotheca fuliginea (powdery mildew on cucurbits). The conditions noted are these: 500 ppm; gherkin plants sprayed 24 hours before contamination; grading 12 days after contamination vs control plants. In short, it runs like this:
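Preventive spray of gherkin plants at Z11 cotyledon stage, grown at 24° C; inoculation 24 hours later with Sphaerotheca fuliginea spores (100 000 spores per ml). Efficacy graded 12 days post-inoculation as % versus solvent-treated control plants.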

Data set [4] has as its system Botrytis cinerea. Put plainly: In vivo preventive test on Botrytis cinerea (grey mould). The conditions noted are these: 500 ppm; gherkin plants sprayed 24 hours before contamination; grading 4-5 days after contamination vs control plants. In short, it runs like this:
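Gherkin plants ("Vert petit de Paris") sprayed with compound at Z11 cotyledon stage, then inoculated 24 h later with B. cinerea spores (50 000/ml) in PDB/fructose/NH4NO3/KH2PO4 nutrient solution. Incubated at 17 °C, 80% RH; % efficacy versus solvent-treated controls graded 4–5 days after contamination.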

Data set [5] concerns Phytophthora infestans. In kind it is in vivo. To be noted: 500 ppm; tomato plants sprayed 24 hours before contamination; grading 5 days after contamination vs control plants.
[6] abbreviates: method [a]: HPLC/LC-MS on reversed phase at pH 2.7, 0.1% formic acid in water / acetonitrile, linear gradient 10% to 95% acetonitrile.
Setting [7] is: HPLC on reversed phase columns, method [a]: pH 2.7, 0.1% formic acid in water / acetonitrile, linear gradient 10% to 95% acetonitrile.
[8] abbreviates: method [a]: HPLC/LC-MS on reversed phase at pH 2.7, 0.1% formic acid in water / acetonitrile, gradient 10% to 95% acetonitrile.
[9] abbreviates: HPLC on reversed phase columns, method [a]: pH 2.7, 0.1% formic acid in water and acetonitrile, linear gradient 10% to 95% acetonitrile.

Each structure is given as a SMILES string. “And” between values parts separate entries of the source, which are not always exact repeats. Equal entries are not always repeated. Where two headings read alike, the source gives them in different places.

In the case of `CCn1cc(CNC(=O)C2(CC)CC(c3ccc4ncc(Br)cc4c3)=NO2)c(C)n1` (stereo not drawn) [compound 70], the “% of efficacy (protection)” value in data set [1] was determined as 100%; in data set [3], 100%; in data set [4], 93%; in data set [5], 82%. Moreover, the “log P” value in data set [2] (setting [6]) is 2.66^[a].

Consider `C#Cc1cnc2ccc(C3=NOC(C)(C(=O)NCc4cn(CCC)nc4C)C3)cc2c1` (stereo not drawn) [compound 83], for which the “% of efficacy (protection)” value in data set [1] is 92%; in data set [3] it was 97% and 98%; in data set [4] it was 100%; in data set [5], 97%. In data set [2] (setting [6]), the “log P” value is 2.39^[a].

On to `CCn1ncc(CNC(=O)C2(C)CC(c3ccc4ncc(Br)cc4c3)=NO2)c1C` (stereo not drawn) [compound 100], for which the “% of efficacy (protection)” value in data set [1] is reported as 75%; in data set [3] it was 94%; in data set [4] it was 97%; in data set [5], 98%. In addition, in data set [2] (setting [6]), the “log P” value was 2.37^[a].

For the molecule `C#Cc1cnc2ccc(C3=NOC(C)(C(=O)NCc4cnn(CC)c4C)C3)cc2c1` (stereo not drawn) [compound 195], the “% of efficacy (protection)” value in data set [1] is 100%; in data set [3], 98%; in data set [4] it was 97%; in data set [5], 100%. For the same molecule, the “log P” value in data set [2] (setting [6]) is 2.11^[a].

With `C#Cc1cnc2ccc(C3=NOC(C)(C(=O)NCc4cnn(C(C)C)c4)C3)cc2c1` (stereo not drawn) [compound 197], the “% of efficacy (protection)” value in data set [1] is 86%; in data set [3] it was 98%; in data set [4], 100%; in data set [5], 97%. The “log P” value in data set [2] (setting [6]) was 2.23^[a].

As for `CC(NC(=O)C1(C)CC(c2ccc3ncc(Br)cc3c2)=NO1)C1CCOC1` (stereo not drawn) [compound 291], the “% of efficacy (protection)” value in data set [1] turned out to be 100%; in data set [3], 80%; in data set [4] it was 88%; in data set [5] it was 87%. Moreover, in data set [2] (setting [7]), the “log P” value is 2.46[a].

On to `C#Cc1cnc2ccc(C3=NOC(OC)(C(=O)NCc4c(C)cnn4CCC)C3)cc2c1` (stereo not drawn) [compound 409], for which the “% of efficacy (protection)” value in data set [1] came to 100%; in data set [3], 98%; in data set [4] it was 100%; in data set [5], 100%. The “log P” value in data set [2] (setting [8]) is 2.33[a].

As for `C#Cc1cnc2ccc(C3=NOC(C)(C(=O)NC(C)(C)/C=N/OC)C3)cc2c1` (stereo not drawn) [compound 463], the “% of efficacy (protection)” value in data set [1] is reported as 100%; in data set [3], 97%; in data set [4], 100%; in data set [5], 100%. Further, the “log P” value in data set [2] (setting [8]) was 2.92[a].

As for `C#Cc1cnc2ccc(C3=NOC(C)(C(=O)NCc4cnn(CC)c4CC)C3)cc2c1` (stereo not drawn) [compound 464], the “% of efficacy (protection)” value is listed as 100% in data set [1], 100% in data set [3], 98% in data set [4] and 100% in data set [5]. Also, the “log P” value in data set [2] (setting [8]) was 2.37[a].

Regarding `C#Cc1cnc2ccc(C3=NOC(C)(C(=O)NC(C)(C)C#CCOC)C3)cc2c1` (stereo not drawn) [compound 465], the “% of efficacy (protection)” value in data set [1] came out at 97%; in data set [3] it was 81%; in data set [4] it was 88%; in data set [5] it was 100%. The “log P” value in data set [2] (setting [8]) was 2.82[a].

Take `C#Cc1cnc2ccc(C3=NOC(C)(C(=O)NC4CCOCC4C)C3)cc2c1` (stereo not drawn) [compound 470]: the “% of efficacy (protection)” value amounted to 97% in data set [1], 75% in data set [3], 100% in data set [4] and 98% in data set [5]. Besides, in data set [2] (setting [8]), the “log P” value was 2.21[a].

As for `CC1(C)OCC(CNC(=O)C2(C)CC(c3ccc4ncc(I)cc4c3)=NO2)O1` (stereo not drawn) [compound 474], the “% of efficacy (protection)” value in data set [1] came to 97%; in data set [3], 98%; in data set [4], 100%; in data set [5], 78%. The “log P” value in data set [2] (setting [8]) was 2.78[a].

Take `CCCn1cc(CNC(=O)C2(CC)CC(c3ccc4ncc(Br)cc4c3)=NO2)c(C)n1` (stereo not drawn) [compound 500]: the “% of efficacy (protection)” value in data set [1] came to 86%; in data set [3], 100%; in data set [4], 85%; in data set [5] it was 94%. Besides, in data set [2] (setting [8]), the “log P” value is 2.91[a].

In the case of `C#Cc1cnc2ccc(C3=NOC(C)(C(=O)NC(C)COCC)C3)cc2c1` (stereo not drawn) [compound 506], the “% of efficacy (protection)” value came out at 100% in data set [1], 97% in data set [3], 100% in data set [4] and 94% in data set [5]. Also, in data set [2] (setting [8]), the “log P” value was 2.55[a].

Turning to `C#Cc1cnc2ccc(C3=NOC(OC)(C(=O)NC(C)(C)c4cc(C)ccn4)C3)cc2c1` (stereo not drawn) [compound 511], the “% of efficacy (protection)” value is 100% in data set [1], 88% in data set [3], 100% in data set [4] and 100% in data set [5]. The “log P” value in data set [2] (setting [8]) was 1.95[a].

For the molecule `C#Cc1cnc2ccc(C3=NOC(OC)(C(=O)NC(C)(C)c4nc(C)cs4)C3)cc2c1` (stereo not drawn) [compound 514], the “% of efficacy (protection)” value in data set [1] came out at 98%; in data set [3], 75%; in data set [4] it was 100%; in data set [5] it was 97%. Moreover, in data set [2] (setting [7]), the “log P” value is 2.90[a].

Take `C#Cc1cnc2c(C)cc(C3=NOC(C)(C(=O)NCc4cn(CCC)nc4C)C3)cc2c1` (stereo not drawn) [compound 533]: the “% of efficacy (protection)” value in data set [1] turned out to be 100%; in data set [3], 100%; in data set [4], 100%; in data set [5] it was 90%. The “log P” value in data set [2] (setting [7]) is 2.90[a].

`C#Cc1cnc2c(Cl)cc(C3=NOC(C)(C(=O)NCc4cn(CC)nc4C)C3)cc2c1` (stereo not drawn) [compound 550]: the “% of efficacy (protection)” value in data set [1] turned out to be 100%; in data set [3] it was 80%; in data set [4] it was 98%; in data set [5], 83%. The “log P” value in data set [2] (setting [7]) was 2.53[a].

As to `CCn1cc(CNC(=O)C2(SC)CC(c3ccc4ncc(Br)cc4c3)=NO2)c(C)n1` (stereo not drawn) [compound 565], the “% of efficacy (protection)” value worked out at 100% in data set [1], 98% in data set [3], 100% in data set [4] and 99% in data set [5]. In data set [2] (setting [7]), the “log P” value was 2.51[a].

With `C#Cc1cnc2ccc(C3=NOC(C=C)(C(=O)NCC4COC(C)(C)O4)C3)cc2c1` (stereo not drawn) [compound 725], the “% of efficacy (protection)” value in data set [1] amounted to 100%; in data set [3] it was 98%; in data set [4], 98%; in data set [5], 83%. In addition, in data set [2] (setting [9]), the “log P” value was 2.66[a].

Regarding `C=CC1(C(=O)NCCCOCC)CC(c2ccc3ncc(I)cc3c2)=NO1` (stereo not drawn) [compound 730], the “% of efficacy (protection)” value in data set [1] is 100%; in data set [3], 98%; in data set [4], 85%; in data set [5], 100%. The “log P” value in data set [2] (setting [9]) was 3.19[a].
